{"source": "patent US5698551A", "about": "“Heterocyclic compounds” (Novo Nordisk A/S, priority 1995, dated 1997)", "test_system": "NMRI female mice", "test": "Inhibition of formalin induced pain response in mice", "type": "in vivo", "conditions": "at 0.1 mg/kg, 1% formalin into left hind paw", "method": "Formalin induced pain or paw oedema\nValues for in vivo inhibition of formalin induced pain or oedema for the compounds of the present invention were assessed in mice essentially by the method of Wheeler-Aceto and Cowan (Agents Action 1991, 34, 265-269).\nAbout 20 g NMRI female mice were injected […] 1% formalin into the left hind paw. The animals were then placed on a heated (31° C.) table, and the pain response was scored. After 1 h they were killed and bled. Left and right hind paws were removed and the weight difference between the paws was used as indication of the oedema response of the formalin injected paw.\nValues for inhibition of formalin induced pain response for some representative compounds are recorded in table 1."}
{"smiles": "Cl.O=C(O)[C@@H]1CCCN(CCCN2C(=O)c3ccccc3Nc3ccccc32)C1", "note": "[Example 1, (R)-1-(3-(11-Oxo-10,11-dihydro-5H-dibenzo[b,e][1,4]diazepin-10-yl)-1-propyl)-3-piperidinecarboxylic acid hydrochloride]", "values": [{"measurement": "% Pain inhibition (inhibition of formalin induced pain response)", "value": 13, "unit": "%"}]}
{"smiles": "Cl.O=C(O)[C@@H]1CCCN(CCCN2C(=O)c3ccccc3CCc3ccccc32)C1", "note": "[Example 2, (R)-1-(3-(6-Oxo-11,12-dihydro-5H-dibenz[b,f]azocin-5-yl)-1-propyl)-3-piperidinecarboxylic acid hydrochloride]", "values": [{"measurement": "% Pain inhibition (inhibition of formalin induced pain response)", "value": 34, "unit": "%"}]}
{"smiles": "Cl.O=C(O)[C@@H]1CCCN(CCCN2Cc3ccccc3Cc3ccccc32)C1", "note": "[Example 3, (R)-1-(3-(6,11-Dihydro-5H-dibenz[b,e]azepin-5-yl)-1-propyl)-3-piperidine-carboxylic acid hydrochloride]", "values": [{"measurement": "% Pain inhibition (inhibition of formalin induced pain response)", "value": 36, "unit": "%"}]}
{"smiles": "Cl.O=C(O)[C@@H]1CCCN(CCCn2c(=O)c3ccccc3c(=O)c3ccccc32)C1", "note": "[Example 4, (R)-1-(3-(6,11-Dioxo-6,11-dihydro-5H-dibenz[b,e]azepin-5-yl)-1-propyl)-3-piperidine-carboxylic acid hydrochloride]", "values": [{"measurement": "% Pain inhibition (inhibition of formalin induced pain response)", "value": 28, "unit": "%"}]}
{"smiles": "Cl.Cl.O=C(O)[C@@H]1CCCN(CCCN2Cc3ccccc3CCc3ccccc32)C1", "note": "[Example 6, (R)-1-(3-(5,6,11,12-Tetrahydro-dibenz[b,f]azocin-5-yl)-1-propyl)-3-piperidinecarboxylic acid dihydrochloride]", "values": [{"measurement": "% Pain inhibition (inhibition of formalin induced pain response)", "value": 22, "unit": "%"}]}
